Measurements from patent publication US20190328721A1, “METHOD OF ACTIVATING DENDRITIC CELLS” (KOREA INSTITUTE OF SCIENCE AND TECHNOLOGY, priority 2018, published 2019).

Columns and labels:
[1] = system: bone marrow-derived macrophages (BMDMs); test: Phagocytosis of cancer cells by bone marrow-derived macrophages in vitro; assay type: cell-based, mice
Procedure: Specifically, the present inventors prepared bone marrow-derived macrophages (BMDMs) differentiated from excised bone marrow of mice using M-CSF and bone marrow-derived dendritic cells (BMDCs) differentiated from excised bone marrow using Flt3L. The degree of differentiation was confirmed by flow cytometry analysis using antibodies specifically binding to F4/80 (BMDM marker) and CD11c (BMDC marker), respectively (FIGS. 2A and 2B).
The prepared BMDMs and BMDCs were stained with 1 μM CellTracker Deep Red (Thermo Fisher Scientific, USA). 30 μM of Y27632 (Abcam, USA) or 30 μM of fasudil (Selleck Chemicals, USA) was added to each of 15×10^4 cells/ml of the stained macrophages and dendritic cells and incubated at 37° C. for 1 hour. As a negative control, macrophages or dendritic cells that were not incubated with Y27632 and fasudil were used.
Bone marrow-derived macrophages or dendritic cells prepared in RPMI medium and cancer cell lines stained with 1 μM CellTracker CMFDA (Thermo Fisher Scientific, USA) were co-cultured at about 37° C. for about 2 hours. CT26.CL25, a colon cancer cell line, and B16F10-OVA, a melanoma cell line, were used as the cancer cells.
Thereafter, the percentage of cancer cells was measured by flow cytometry, and the phagocytosis ratio of macrophages and dendritic cells against cancer cells was calculated. The results are shown in FIGS. 2C to 2F (left: cancer cell line CT26.CL25, right: cancer cell line B16F10-OVA).
In order to more accurately analyze the phagocytosis of macrophages and dendritic cells against cancer cells according to the treatment of the ROCK inhibitor, the present inventors analyzed phagocytosis of the BMDMs and BMDCs against CT26.CL25 colon cancer cells using the pHrodo-SE dye, which changes in fluorescence depending on pH. When […], the pH of the cancer cells decreased and became red. When treated with Y27632 as described above for the above-mentioned phagocytosis response, the phagocytic activities of both the BMDMs and BMDCs against cancer cells were improved.
The present inventors performed an experiment to confirm how long the phagocytosis of BMDMs and BMDCs against cancer cells due to the ROCK inhibitor is maintained. Specifically, BMDMs and BMDCs were pretreated with Y27632 for 1 hour, then Y27632 was removed, and immediately after 30 minutes, 1 hour, 2 hours, or 4 hours, the phagocytosis against CT26.CL25 and B16F10-Ova was measured using a flow cytometer. The other experimental conditions were the same as in Example 1-1.
In order to confirm whether the ROCK inhibitor increases phagocytosis against cancer cells by acting on phagocytic cells (BMDMs or BMDCs) themselves, Y27632 was used to pretreat the phagocytic cells or cancer cells for 1 hour, and the phagocytic activity was analyzed using the same procedure described in Example 1-1.
The present inventors identified through the above-mentioned results that Y27632 promotes phagocytic cells against cancer cells by inhibiting ROCK in the phagocytic cells. In order to elucidate a more detailed mechanism related to the increase of phagocytic activity by ROCK inhibitors, the present inventors analyzed phagocytosis of the phagocytic cells against cancer cells using blebbistatin (Sigma-Aldrich, USA), which can inhibit the movement of myosin light chain, which exist downstream of ROCK signaling pathway, according to the method described in Example 1-1.
Bone marrow-derived macrophages (BMDMs) treated with 30 μM of fasudil were co-cultured with B16F10-Ova malignant melanoma cells for 1 hour and the phagocytic activity of the BMDMs against apoptotic cancer cells was analyzed by flow cytometry analysis. In order to induce immunogenic apoptosis, 2.5 μM mitoxantrone (Sigma-Aldrich, USA) was administered with B16F10-Ova cells stained with CellTracker Deep Red (Thermo Fisher Scientific, USA) for 4 hours. […]

[2] = system: bone marrow-derived dendritic cells (BMDCs); test: Phagocytosis of cancer cells by bone marrow-derived dendritic cells in vitro; assay type: cell-based, mice; conditions: 30 μM, 1 hour
[3] = system: CT26.CL25 cell line; test: CT26.CL25 tumor model in immunodeficient nude mice; assay type: in vivo; conditions: 10 mg/kg intravenous
Procedure: Specifically, immunodeficient nude mice were subcutaneously injected with 1×10^6 cells of CT26.CL25 cell line in order to induce cancer. After the 11 days from the injection of the cancer cells, tumor size was 50-100 mm^3, and Y27632 was administered at a dose of 10 mg/kg continuously for two consecutive days by intravenous injection, followed by a day of rest as a cycle, followed by 3 cycles of 3-day intervals (FIG. 9A). As a negative control group, only phosphate buffered saline (PBS) was administered. The tumor tissues were excised and an ex vivo image was taken. In addition, before the mice were sacrificed, the change in body weight was measured at intervals of 3 days from the 11th day of cancer cell injection in the case of CT26.CL25 cancer model, and the length (L) and width (W) were measured, and the volume of the tumor tissues was measured using the equation described in Example 2-1 (FIG. 9B).

[4] = system: MMTV/Neu mice tumors; test: Spontaneous cancer development model; assay type: in vivo
Procedure: The survival rate was recorded over up to 100 days. When the size of tumor was over 2,500 mm^3, the animal was euthanized (FIG. 20C).
Specifically, fluorescence immunohistochemical analysis was performed using anti-CD8 antibodies in the cancer tissues after the end of the experiment.
Accordingly, the present inventors investigated whether the combination of the drugs can increase the anti-cancer immunity even in the spontaneous cancer development model. […] After completion of the experiment, the present inventors isolated the spleen cells and treated with peptide against rat-Neu, an antigen expressed in the cancer of the spontaneous cancer development model, and after 48 hours, the culture supernatant was collected and IFN-γ was quantified using an ELISA kit (R&D Systems, Inc, USA).

C[C@@H](N)[C@H]1CC[C@H](C(=O)Nc2ccncc2)CC1 [Y27632]
phagocytic ability of macrophages against cancer cells ([1]; 30 μM, 1 hour, co-culture with CT26.CL25 or B16F10-OVA about 2 hours): significantly increased | phagocytic activity of BMDMs against cancer cells (pHrodo-SE dye) ([1]; CT26.CL25 colon cancer cells): improved | phagocytosis by BMDMs against cancer cells, cancer cells pre-treated ([1]; cancer cells pretreated for 1 hour): not increased | phagocytosis against cancer cells, BMDMs pretreated ([1]; phagocytic cells pretreated for 1 hour): increased | time for which BMDMs maintain phagocytosis after the pretreatment ([1]; pretreated 1 hour, then removed, CT26.CL25 and B16F10-Ova): ≤ 1 h | phagocytosis of BMDCs against non-immunogenic apoptosis-induced cancer cells by cisplatin ([2]; CT26.CL25 or B16F10-Ova): increased similarly to that by doxorubicin treatment | phagocytosis of BMDCs against necrosis-induced cancer cells ([2]; necrosis at 55° C. for 30 minutes): increased similarly to that by doxorubicin treatment | anti-cancer effect (tumor volume) in nude mice lacking immune function [3]: only a limited anti-cancer effect | anti-cancer immunity (IFN-γ of spleen cells treated with rat-Neu peptide) ([4]; 48 hours): increased | CD8+ T cells in tumor tissues (infiltration) ([4]; anti-CD8 fluorescence immunohistochemistry): some T cell infiltration
